Measurements from PubChem BioAssay (NCI).
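Step 1: Grow cells in 96-well plates. Step 2: Expose to compound for 48 hours at 5 concentrations. Step 3: Interpolate endpoints linearly; if unreached, use highest concentration. The concentration for full growth arrest is given as TGI.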

What was measured:
Test in all cases: NCI-60 cell line screen, 48 h
[1] = test system: RXF 393 renal
[2] = test system: SK-MEL-2 melanoma
[3] = test system: MDA-MB-231 breast
[4] = test system: SF-268 CNS
[5] = test system: OVCAR-4 ovarian
[6] = test system: CAKI-1 renal
[7] = test system: U251 CNS
[8] = test system: T-47D breast
[9] = test system: NCI-H460 lung
[10] = test system: UO-31 renal

O=C1NC(N/N=C/C(O)C(O)C(O)C(O)CO)=N/C1=C\c1cccs1 (centres undefined)
TGI [1]: > 100 µM
TGI [2]: > 100 µM
TGI [3]: > 100 µM
TGI [4]: > 100 µM
TGI [5]: > 100 µM
TGI [6]: > 100 µM
TGI [7]: > 100 µM
TGI [8]: > 100 µM
TGI [9]: > 100 µM

CCOC(=O)/C=C/[C@H](O[Si](c1ccccc1)(c1ccccc1)c1ccccc1)C(C)(C)C
TGI [1]: > 31.6 µM
TGI [2]: > 31.6 µM
TGI [3]: > 31.6 µM
TGI [4]: > 31.6 µM
TGI [5]: > 31.6 µM
TGI [6]: > 31.6 µM
TGI [7]: > 31.6 µM
TGI [8]: > 31.6 µM
TGI [10]: > 31.6 µM

C=C1CC(CNc2cc(Cl)nc(N)n2)C1
TGI [1]: > 100 µM
TGI [2]: > 100 µM
TGI [3]: > 100 µM
TGI [4]: > 100 µM
TGI [5]: > 100 µM
TGI [6]: > 100 µM
TGI [7]: > 100 µM
TGI [9]: > 100 µM
TGI [10]: > 100 µM

O=C(/C=C/c1ccc(Cl)c(Cl)c1)CCN1CCN(CCC(=O)/C=C/c2ccc(Cl)c(Cl)c2)CC1
TGI [1]: 38.9 µM
TGI [2]: 92.6 µM
TGI [3]: 56.7 µM
TGI [4]: > 100 µM
TGI [5]: 46.7 µM
TGI [6]: 31.8 µM
TGI [7]: 49.2 µM
TGI [8]: 77.4 µM
TGI [9]: 38.5 µM
TGI [10]: 32.6 µM

COc1ccccc1/C=C1/Sc2scc(CC(=O)Nc3ccccc3)[n+]2C1=O
TGI [1]: 80.8 µM
TGI [2]: 73.3 µM
TGI [3]: 70.8 µM
TGI [4]: > 100 µM
TGI [5]: > 100 µM
TGI [6]: > 100 µM
TGI [7]: > 100 µM
TGI [9]: > 100 µM
TGI [10]: 70.7 µM

CC1(C)OC[C@@]2([C@@H]3CC[C@@H](C3)C2(C)C)N1O
TGI [1]: > 100 µM
TGI [2]: > 100 µM
TGI [3]: > 100 µM
TGI [4]: > 100 µM
TGI [5]: > 100 µM
TGI [6]: > 100 µM
TGI [7]: > 100 µM
TGI [8]: > 100 µM
TGI [9]: > 100 µM

NNC(=O)CCCCCCCC(=O)O
TGI [2]: > 100 µM
TGI [3]: > 100 µM
TGI [5]: > 100 µM
TGI [6]: > 100 µM
TGI [7]: > 100 µM
TGI [8]: > 100 µM
TGI [9]: > 100 µM
TGI [10]: > 100 µM

CCOC(=O)c1ccc(Nc2nc3ccc(C(F)(F)F)cc3nc2-c2ccccc2)cc1
TGI [1]: > 100 µM
TGI [4]: > 100 µM
TGI [6]: > 100 µM
TGI [7]: > 100 µM
TGI [8]: 87.1 µM
TGI [9]: > 100 µM
TGI [10]: > 100 µM

COc1cc(/C=C/C(=O)O)ccc1O
TGI [2]: > 100 µM
TGI [3]: > 100 µM
TGI [4]: > 100 µM
TGI [5]: > 100 µM
TGI [6]: > 100 µM
TGI [7]: > 100 µM
TGI [8]: > 100 µM
TGI [9]: > 100 µM
TGI [10]: > 100 µM

C=C(Br)C(Cl)(CBr)CCC(Br)C(C)(C)Cl (centres undefined)
TGI [1]: > 10 µM
TGI [2]: > 10 µM
TGI [3]: > 10 µM
TGI [4]: > 10 µM
TGI [5]: > 10 µM
TGI [6]: > 10 µM
TGI [7]: > 10 µM
TGI [8]: > 10 µM
TGI [10]: > 10 µM

COc1ccc(/C=N/n2c(Cc3ccc(Cl)cc3)n[nH]c2=O)cc1
TGI [1]: 35.1 µM
TGI [2]: 61.5 µM
TGI [3]: 26.6 µM
TGI [5]: > 100 µM
TGI [6]: > 100 µM
TGI [7]: 33.6 µM
TGI [8]: > 100 µM
TGI [9]: > 100 µM
TGI [10]: > 100 µM

O=C(CN=C(CN(c1ccccc1)c1ccccc1)Oc1c([N+](=O)[O-])cc([N+](=O)[O-])cc1[N+](=O)[O-])N1CCNCC1
TGI [1]: > 100 µM
TGI [3]: > 100 µM
TGI [4]: > 100 µM
TGI [5]: > 100 µM
TGI [7]: > 100 µM
TGI [8]: > 100 µM
TGI [9]: > 100 µM

CCOP(=O)(OCC)C(Cc1ccccc1)N=C(c1ccccc1)c1ccccc1 (centres undefined)
TGI [2]: 38.2 µM
TGI [4]: 37.6 µM
TGI [5]: 38.3 µM
TGI [6]: 31.6 µM
TGI [7]: 28.4 µM
TGI [8]: 26.6 µM
TGI [9]: 31.9 µM
TGI [10]: 24.4 µM

CSc1cc(Cl)c(C)cc1S(=O)(=O)NC(=O)NNc1ccccn1
TGI [1]: > 100 µM
TGI [2]: > 100 µM
TGI [3]: > 100 µM
TGI [4]: > 100 µM
TGI [5]: > 100 µM
TGI [6]: > 100 µM
TGI [7]: > 100 µM
TGI [8]: > 100 µM
TGI [9]: > 100 µM

CCOC(=O)c1c(NC(=O)c2ccccc2)sc2c1CCC2
TGI [1]: > 100 µM
TGI [2]: > 100 µM
TGI [3]: > 100 µM
TGI [4]: > 100 µM
TGI [6]: > 100 µM
TGI [8]: > 100 µM
TGI [9]: > 100 µM
TGI [10]: > 100 µM

O=S(=O)(NC(c1ccccc1)(c1cc2ccccc2[nH]1)c1cc2ccccc2n1S(=O)(=O)c1ccccc1)c1ccccc1 (centres undefined)
TGI [2]: > 100 µM
TGI [3]: > 100 µM
TGI [4]: > 100 µM
TGI [5]: > 100 µM
TGI [6]: > 100 µM
TGI [7]: > 100 µM
TGI [8]: > 100 µM
TGI [9]: > 100 µM
TGI [10]: > 100 µM

CCO[C@H]1C[C@@H](c2ccccc2)[C@]2(C)C[C@H](C(=O)OC)ON2O1
TGI [1]: > 100 µM
TGI [2]: > 100 µM
TGI [3]: > 100 µM
TGI [4]: > 100 µM
TGI [5]: > 100 µM
TGI [6]: > 100 µM
TGI [7]: > 100 µM
TGI [8]: > 100 µM
TGI [10]: > 100 µM

COC(=O)[C@H]1ON2O[C@@H](O[C@H]3CCCC[C@@H]3C(C)(C)c3ccccc3)C[C@@H]3CC[C@H]1[C@@]32C
TGI [1]: > 100 µM
TGI [4]: > 100 µM
TGI [6]: > 100 µM
TGI [7]: > 100 µM
TGI [8]: > 100 µM
TGI [9]: > 100 µM
TGI [10]: > 100 µM
